The target of this test is T1, sodium-proton exchanger of subtype 3 (NHE3) (Homo sapiens, UniProt P48764).
T1 construct: expressed in transfected cells
T1 sequence (P48764 26-834): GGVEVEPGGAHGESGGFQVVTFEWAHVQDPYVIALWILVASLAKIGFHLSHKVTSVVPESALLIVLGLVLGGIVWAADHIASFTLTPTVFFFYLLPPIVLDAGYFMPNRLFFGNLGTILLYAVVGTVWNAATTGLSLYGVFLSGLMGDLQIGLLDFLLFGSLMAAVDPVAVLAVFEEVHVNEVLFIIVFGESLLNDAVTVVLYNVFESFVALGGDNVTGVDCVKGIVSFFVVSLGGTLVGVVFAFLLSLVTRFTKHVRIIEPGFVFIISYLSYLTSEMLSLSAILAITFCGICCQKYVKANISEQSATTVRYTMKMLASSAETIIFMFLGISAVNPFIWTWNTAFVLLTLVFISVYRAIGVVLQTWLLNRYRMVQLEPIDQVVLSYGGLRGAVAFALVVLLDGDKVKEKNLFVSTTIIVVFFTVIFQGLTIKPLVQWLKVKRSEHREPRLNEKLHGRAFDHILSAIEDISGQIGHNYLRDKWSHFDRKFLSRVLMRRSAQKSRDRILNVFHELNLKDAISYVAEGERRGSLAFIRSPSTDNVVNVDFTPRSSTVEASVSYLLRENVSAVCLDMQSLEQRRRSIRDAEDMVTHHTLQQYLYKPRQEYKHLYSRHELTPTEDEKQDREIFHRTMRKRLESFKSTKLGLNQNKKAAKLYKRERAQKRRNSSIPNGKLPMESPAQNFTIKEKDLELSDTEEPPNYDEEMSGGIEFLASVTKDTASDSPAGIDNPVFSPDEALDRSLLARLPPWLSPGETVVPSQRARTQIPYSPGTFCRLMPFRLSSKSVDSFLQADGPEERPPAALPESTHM
The test is described as follows: Recovery of intracellular pH (pHi) after acidification in LAP1 cells stably expressing NHE3 (BCECF fluorescence, FLIPR). To be noted: LAP1 cells stably expressing NHE3; pH recovery after acidification; range 1 is % inhibition at 10 μM; read-out: Activity range (inhibitory effect on NHE3). It counts as cell-based.

Bounds are passed on as bounds.

With `CS(=O)(=O)c1nccn1-c1ccc(O[C@H]2c3cc(Cl)cc(Cl)c3C[C@@H]2N2CC[C@@H](O)C2)cc1` [Example 731, (R)-1-{trans-(1S,2S)-4,6-Dichloro-1-[4-(2-methanesulfonyl-imidazol-1-yl)-phenoxy]-indan-2-yl}-pyrrolidin-3-ol], the IC50 is less than 1000 nM.
Take `CS(=O)(=O)c1ccc(O[C@H]2c3cc(Cl)cc(Cl)c3C[C@@H]2N2CCNCC2)cc1` [Example 308, 1-[trans-(1S,2S)-4,6-dichloro-1-(4-methanesulfonylphenoxy)indan-2-yl]piperazine]: the IC50 is less than 1000 nM.
Regarding `CN1CCN([C@H]2Cc3c(Cl)cc(Cl)cc3[C@@H]2Oc2ccc(-n3cncn3)cc2)CC1` [Example 296, 1-[trans-(1S,2S)-4,6-dichloro-1-(4-[1,2,4]triazol-1-ylphenoxy)indan-2-yl]-4-methylpiperazine], the inhibition at 10 µM fell in the range of 20 to 50%.
Turning to `Cc1c(Cl)ccc(O[C@@H]2c3ccccc3C[C@H]2N2C[C@H]3CNC[C@H]3C2)c1Cl` (racemic) [Example 4, 2-[rac-trans-(1,2)-1-(2,4-dichloro-3-methylphenoxy)indan-2-yl]octahydropyrrolo[3,4-c]pyrrole], the IC50 lay within 1000 to 10000 nM.
Take `N#Cc1ccc(O[C@@H]2c3ccccc3C[C@H]2N2CCC[C@@H](N)C2)c(Cl)c1` (racemic) [Example 523, 4-[rac-trans-(1,2)-2-((R)-3-aminopiperidin-1-yl)indan-1-yloxy]-3-chlorobenzonitrile]: the IC50 lay within 1000 to 10000 nM.
Regarding `N[C@H]1CCCN([C@H]2CCc3ccccc3[C@@H]2Oc2ccc(C(F)(F)F)cc2)C1` (racemic) [Example 186, (S)-1-[rac-trans-(1,2)-1-(4-trifluoromethylphenoxy)-1,2,3,4-tetrahydronaphthalen-2-yl]piperidin-3-ylamine], the inhibition at 10 µM lay within 20 to 50%.
As for `N[C@H]1CCCN([C@H]2CCc3ccccc3[C@@H]2Oc2ccc(-n3ccnc3)cc2)C1` (racemic) [Example 180, (S)-1-[rac-trans-(1,2)-1-(4-imidazol-1-ylphenoxy)-1,2,3,4-tetrahydronaphthalen-2-yl]piperidin-3-ylamine], the inhibition at 10 µM fell in the range of 20 to 50%.
Turning to `N#Cc1c(F)cccc1O[C@@H]1c2ccccc2C[C@H]1N1CCC(CN)C1` (mixture of isomers) [Example 374, 2-[rac-trans-(1,2)-2-(3-aminomethylpyrrolidin-1-yl)indan-1-yloxy]-6-fluorobenzonitrile], the IC50 fell in the range of 1000 to 10000 nM.
For the compound `Cc1nc2cc(O[C@@H]3c4ccccc4C[C@H]3N3CCC(CN)C3)ccc2s1` (mixture of isomers) [Example 608, C-{1-[rac-trans-(1,2)-1-(2-methylbenzothiazol-5-yloxy)indan-2-yl]pyrrolidin-3-yl}methylamine], the IC50 is 1000 to 10000 nM.
On to `CS(=O)(=O)c1ccc(O[C@H]2c3cc(Cl)cc(Cl)c3C[C@@H]2N2CCC[C@@H](NCC#N)C2)cc1` [Example 225, {(R)-1-[trans-(1S,2S)-4,6-dichloro-1-(4-methanesulfonylphenoxy)indan-2-yl]piperidin-3-ylamino}acetonitrile], for which the IC50 was less than 1000 nM.
`c1cc(O[C@@H]2c3ccccc3C[C@H]2N2C[C@H]3CNC[C@H]3C2)cc(N2CCNCC2)c1` (racemic) [Example 13, 2-[rac-trans-(1,2)-1-(3-piperazin-1-ylphenoxy)indan-2-yl]octahydropyrrolo[3,4-c]pyrrole]: the IC50 lay within 1000 to 10000 nM.
For the compound `NCC1CCN([C@@H]2Cc3ccccc3[C@H]2Oc2cccc(C(N)=O)c2)C1` (mixture of isomers) [Example 414, 3-[rac-trans-(1,2)-2-(3-aminomethylpyrrolidin-1-yl)indan-1-yloxy]benzamide], the IC50 lay within 1000 to 10000 nM.
Regarding `Cc1nnc(C)n1-c1ccc(O[C@H]2c3cc(Cl)cc(Cl)c3C[C@@H]2N2CC[C@H](N)C2)cc1` [Example 207, (S)-1-{trans-(1S,2S)-4,6-dichloro-1-[4-(3,5-dimethyl-[1,2,4]triazol-4-yl)phenoxy]indan-2-yl}pyrrolidin-3-ylamine], the IC50 was less than 1000 nM.

For the origin of these results see patent US8822449B2, “Substituted aminoindanes and analogs thereof, and the pharmaceutical use thereof” (Sanofi, priority 2008, dated 2014).
